The results in this text go back to patent US20250051282A1, “COMPOUNDS FOR TREATING POLYQ-RELATED NEURODEGENERATIVE DISORDERS” (HANGZHOU JIJING PHARMACEUTICAL TECHNOLOGY LIMITED, priority 2021, published 2025).

Bounds are passed on as bounds.

This assay concerns ATXN1(60Q). Briefly: Daoy-ATXN1(60Q)-mATXN1 MSD assay (CTG normalized). Type of assay: cell-based. Particulars: Daoy-Flag-ATXN1(60Q) stable cells, compound added Day 2, lysis Day 3, final DMSO 0.3%, read-out: Daoy-ATXN1(60Q)-mATXN1 MSD (CTG normalized) DC50. How it is done: Protocol for MSD Assay: Daoy-ATXN1(600)-mATXN1 MSD (CTG normalized)
The Flag-ATXN1(60Q) gene is synthesized by Genescript and cloned into the pLVX-IRES-Puro vector (Takarabio, catalog No. 632183) using EcoRI/BamHI restriction enzyme sites. Lentivirus is made by transfecting HEK293T cells with pLVX-IRES-Puro-Flag-ATXN1(60Q) plasmids and packaging plasmids psPAX2 and pMD2.G at 4:3:1 ratio (8:6:[…], respectively) in 10 cm plates, and are harvested at 48 hours post transfection. Daoy cells (ATCC catalog No. HTB-186) seeded in T25 flasks are infected with the lentivirus in the presence of 8 µg/mL polybrene (Sigma, TR-1003-G) for 24 hours. 48 hours post infection, the cells are selected using 0.5 […] (Sigma, P8833) for more than 5 days until all cells in the uninfected group die. The expression of Flag-ATXN1(60Q) is verified by anti-Flag immunoblot using anti-Flag antibody (Sigma, F1804-200UG, M2).
As explained above, Daoy-Flag-ATXN1(60Q) cells are prepared as a stable cell line by infecting Daoy cells with lentivirus. The media for the cells is EMEM (ATTC, 30-2008) with 10% fetal bovin serum (FBS).
On Day 1, the Daoy-Flag-ATXN1(60Q) cells are seeded in a 96 well plate at a concentration of 1.2×10^4/well. On Day 2, the cells are treated with test compounds at test concentrations (compounds are serially diluted with DMSO to obtain test concentrations, such that final DMSO concentration is 0.3%). On Day 3, the cells are washed with 100 μL of phosphate-buffered saline (PBS) per well, and then 30 μL of radioimmuno-precipitation assay (RIPA) buffer (with protease and phosphatase inhibitor cocktail) is added to each well.
The well plate is then cooled on ice for 30 minutes in order to complete lysis, and MSD samples are prepared using 10 μL of Daoy-Flag-ATXN1-60Q lysate and 90 μL of RIPA buffer with gentle mixing. Each MSD sample has a total volume of 100 μL, and is used immediately or stored at −80° C.
A standard Meso Scale Discovery (MSD) plate is coated with anti-Flag (Sigma, F1804-200UG, M2) in PBS at 1:500 dilution ratio and 40 µL/well, and is incubated at 4° C. overnight with shaking at 600 rpm. Then, the MSD plate is washed 3 times with 150 µL/well of 1X TBST (tris-buffered saline (TBS) with Tween 20) buffer, and the MSD plate is blocked with 150 μL of blocking buffer [3% Blocker A in 1X TBST, (3 g Blocker A per 100 mL 1X TBST)] and shaken for 1 hour at 600 rpm at room temperature. Then, the MSD plate is washed three times with 150 μL/well of 1X TBST. Next, the diluted lysate samples (from Sample Preparation above) are added to the MSD plate at 25 μL/well, and the MSD plate is shaken at 600 rpm for 1 hour at room temperature. Then the MSD plate is washed 3 times with 150 μL/well of 1X TBST.
Detection antibody anti-Ataxin 1 (G-bio, ITA1916) (1:500), which is prepared in antibody detection buffer (1% Blocker A in 1X TBST), is then added to the MSD plate at 25 µL/well, and the MSD plate is shaken at 600 rpm for 1 hour at room temperature. The MSD plate is then washed three times with 150 μL/well of 1X TBST. Next, a secondary detection antibody, Goat anti-rabit (GAR) with SULFO-TAG (1:500), which is prepared in antibody detection buffer (1% Blocker A in 1X TBST), is added at 25 μL/well and the MSD plate is shaken at 600 rpm for 1 hour at room temperature. Then the MSD plate is washed 3 times with 150 μL/well of 1X TBST, and 2X MSD reading buffer is added at 150 μL/well (diluted from 4x MSD reading buffer with water). Finally, the signal from each well is measured on the MSD Meso QuickPle SQ120 Plate Reader. DC50 data is calculated using collaborate drug discovery (CDD) software (https://www.collaborativedrug.com/about).

For `CC(=O)NCCOCCOCCOCCN/C(=C1\C(=O)Nc2ccc(Br)cc21)c1cccc(O)c1` [Example 61, (Z)—N-(1-(5-bromo-2-oxoindolin-3-ylidene)-1-(3-hydroxyphenyl)-5,8,11-trioxa-2-azatridecan-13-yl)acetamide], the DC50 fell in the range of 10 to 30 µM. Consider `O=C1Nc2ccc(Br)cc2/C1=C(/NC1CC1)c1cccc(O)c1` [Example 7, (Z)-5-bromo-3-((cyclopropylamino) (3-hydroxyphenyl)methylene)indolin-2-one], for which the DC50 is under 10 µM.

Turning to `Nc1cccc(/C(NC2CNC2)=C2/C(=O)Nc3ccc(OC(F)(F)F)cc32)c1` [Example 34, (Z)-3-((3-aminophenyl)(azetidin-3-ylamino)methylene)-5-(trifluoromethoxy) indolin-2-one], the DC50 is under 10 µM. With `Nc1cccc(/C(Nc2cn[nH]c2)=C2/C(=O)Nc3ccc(Br)cc32)c1` [Example 59, (Z)-3-(((1H-pyrazol-4-yl)amino)(3-aminophenyl)methylene)-5-bromoindolin-2-one], the DC50 was under 10 µM.

As for `Cn1cc(N/C(=C2\C(=O)Nc3ccc(Br)cc32)c2cccc(O)c2)cn1` [Example 71, (Z)-5-bromo-3-((3-hydroxyphenyl)((1-methyl-1H-pyrazol-4-yl)amino)methylene)indolin-2-one], the DC50 is under 10 µM. The result for `O=C1Nc2ccc(Br)cc2/C1=C(\c1cccc(O)c1)N1CCCCC1` [Example 12, (Z)-5-bromo-3-((3-hydroxyphenyl) (piperidin-1-yl)methylene) indolin-2-one] reads over 30 µM; that for `NC(=C1C(=O)Nc2ccc(Br)cc21)C1COc2ccccc2O1` (stereo not drawn) [Example 79, 3-(Amino(2,3-dihydrobenzo[b] [1,4]dioxin-2-yl)methylene)-5-bromoindolin-2-one], over 30 µM; that for `Cn1cc(N/C(=C2\C(=O)Nc3ccc(Br)cc32)c2ccccc2)cn1` [Example 22, (Z)-5-bromo-3-(((1-methyl-1H-pyrazol-4-yl)amino)(phenyl)methylene)indolin-2-one], 10 to 30 µM. For the compound `Nc1cccc(/C(NCCCF)=C2/C(=O)Nc3ccc(Br)cc32)c1` [Example 58, (Z)-3-((3-aminophenyl)((3-fluoropropyl)amino)methylene)-5-bromoindolin-2-one], the DC50 was under 10 µM. Regarding `O=C1Nc2ccc(Br)cc2/C1=C(/Nc1cccnn1)c1ccccc1` [Example 44, (Z)-5-bromo-3-(phenyl(pyridazin-3-ylamino)methylene) indolin-2-one], the DC50 was over 30 µM. For `O=C1Nc2ccc(Br)cc2/C1=C(/Nc1ccnnc1)c1cccc(O)c1` [Example 38, (Z)-5-bromo-3-((3-hydroxyphenyl)(pyridazin-4-ylamino)methylene) indolin-2-one], the DC50 was under 10 µM.

On to `N/C(=C1\C(=O)Nc2ccc(Br)cc21)c1cc(C(F)F)ccn1` [Example 75, (Z)-3-(amino(4-(difluoromethyl)pyridin-2-yl)methylene)-5-bromo indolin-2-one], for which the DC50 lay in the range of 10 to 30 µM. As to `O=C1Nc2ccc(Br)cc2/C1=C(/Nc1ccnnc1)c1cccc(C(F)F)c1` [Example 41, (Z)-5-bromo-3-((3-(difluoromethyl)phenyl)(pyridazin-4-ylamino)methylene) indolin-2-one], the DC50 is under 10 µM. As for `O=C1Nc2ccc(Br)cc2/C1=C(/NC1CNC1)c1ccccc1` [Example 35, (Z)-3-((azetidin-3-ylamino)(phenyl)methylene)-5-bromo indolin-2-one], the DC50 is under 10 µM. The result for `O=C1Nc2ccc(Br)cc2/C1=C(/Nc1cnccn1)c1ccccc1` [Example 46, (Z)-5-bromo-3-(phenyl(pyrazin-2-ylamino)methylene) indolin-2-one] reads over 30 µM. `Nc1cccc(/C(NC2CNC2)=C2/C(=O)Nc3ccc(Br)cc32)c1` [Example 33, (Z)-3-((3-aminophenyl)(azetidin-3-ylamino)methylene)-5-bromoindolin-2-one]: the DC50 is under 10 µM. On to `O=C1Nc2ccc(Br)cc2/C1=C(/NCCCF)c1cccc(C(F)F)c1` [Example 20, (Z)-5-bromo-3-((3-(difluoromethyl)phenyl)((3-fluoropropyl)amino)methylene) indolin-2-one], for which the DC50 is under 10 µM. Consider `Nc1ccc(/C(Nc2ccnnc2)=C2/C(=O)Nc3ccc(Br)cc32)cc1O` [Example 63, (Z)-3-((4-amino-3-hydroxyphenyl)(pyridazin-4-ylamino)methylene)-5-bromoindolin-2-one], for which the DC50 was under 10 µM. As to `O=C1Nc2ccc(Br)cc2/C1=C(/Nc1c[nH]cn1)c1cccc(O)c1` [Example 17, (Z)-3-(((1H-imidazol-4-yl)amino)(3-hydroxyphenyl)methylene)-5-bromoindolin-2-one], the DC50 was under 10 µM.

Regarding `O=C1Nc2ccc(Br)cc2/C1=C(/NC1CNC1)c1cccc(O)c1` [Example 26, (Z)-3-((azetidin-3-ylamino)(3-hydroxyphenyl)methylene) 5-bromindolin-2-one], the DC50 was under 10 µM. For `O=C1Nc2ccc(OC(F)(F)F)cc2/C1=C(/NCCO)c1cccc(O)c1` [Example 18, (Z)-3-(((2-hydroxyethyl)amino)(3-hydroxyphenyl)methylene)-5-(trifluoromethoxy) indolin-2-one] the value was under 10 µM; for `CCC/C(=C1\C(=O)Nc2ccc(Br)cc21)c1cccc(O)c1` [Example 100, (E)-5-bromo-3-(1-(3-hydroxyphenyl)butylidene)indolin-2-one], under 10 µM.

As to `O=C1Nc2ccc(Br)cc2/C1=C(/Nc1cccnn1)c1cccc(O)c1` [Example 73, (Z)-5-bromo-3-((3-hydroxyphenyl) (pyridazin-3-ylamino)methylene)indolin-2-one], the DC50 is under 10 µM. Consider `O=C1Nc2ccc(Br)cc2/C1=C(/Nc1ccnnc1)c1ccc2[nH]c(=O)oc2c1` [Example 64, (Z)-6-((5-bromo-2-oxoindolin-3-ylidene)(pyridazin-4-ylamino)methyl) benzo[d]oxazol-2(3H)-one], for which the DC50 is under 10 µM.

As for `C/C(=C1\C(=O)Nc2ccc(Br)cc21)c1cccc(O)c1` [Example 85, (E)-5-bromo-3-(1-(3-hydroxyphenyl)ethylidene)indolin-2-one], the DC50 was 10 to 30 µM. The result for `N/C(=C1\C(=O)Nc2ccc(Br)cc21)c1cc2ccccc2o1` [Example 76, (Z)-3-(amino (benzofuran-2-yl)methylene)-5-bromoindolin-2-one] reads under 10 µM; that for `O=C1Nc2ccc(Br)cc2/C1=C(/Nc1cn[nH]c1)c1cccc(O)c1` [Example 70, (Z)-3-(((1H-pyrazol-4-yl)amino)(3-hydroxyphenyl)methylene)-5-bromoindolin-2-one], under 10 µM. For `NCCN/C(=C1\C(=O)Nc2ccc(Br)cc21)c1cc(N)ccc1F` [Example 32, (Z)-3-((5-amino-2-fluorophenyl)((2-aminoethyl)amino)methylene)-5-bromo indolin-2-one] the value was under 10 µM.

As for `NCCOCCOCCOCCN/C(=C1\C(=O)Nc2ccc(Br)cc21)c1cccc(O)c1` [Example 36, (Z)-3-(13-amino-1-(3-hydroxyphenyl)-5,8,11-trioxa-2-azatridecylidene)-5-bromoindolin-2-one], the DC50 lay in the range of 10 to 30 µM. With `O=C1Nc2ccc(Br)cc2/C1=C(/NCCCF)c1ccccc1` [Example 19, (Z)-5-bromo-3-(((3-fluoropropyl)amino) (phenyl)methylene) indolin-2-one], the DC50 was under 10 µM.
